From patent US20060100190A1, “Motexafin lutetium phototherapy with low fluences for treating vascular inflammation” (Pharmacyclics, Inc., priority 2004, published 2006)

Key:
[1] = test system: atheroma; conditions: reported; cited from earlier work
[2] = test system: Watanabe Heritable Hyperlipidemic (WHHL) rabbits; assay: MLu phototherapy (732 nm, low fluences) of aortic atheroma in cholesterol-fed WHHL rabbits; format: in vivo, rabbit
From the text: FIG. 1 depicts treated segments of the rabbit aortic tree. In each rabbit, both T1 and T2 segments were about 30 mm in length with another 30 mm of buffer in between. Both T1 and T2 received the same fluence (J/cmf) at different fluence rates (mW/cmf) because T1 illumination period was shorter at 400 seconds compared to 900 seconds for T2.
Thirty 8 months old male Watanabe Heritable Hyperlipidemic (WHHL) rabbits were randomized after 3 weeks of 1% cholesterol feeding to either control or MLu groups (10 mg/kg, iv via ear vein). Intravascular illumination was performed 24 hours post-MLu using a fiber with a 30 mm active diffuser tip to deliver escalating fluences (30-175 J/cmf, 732 nm) for 400 s (upper) and 900 s (lower thoracic/abdominal aorta); control received no light. Rabbits were then switched to a normal diet immediately after phototherapy and sacrificed 3 weeks later. Aortas were harvested and examined for plaque (I/M ratios), Mac (RAM11), smooth muscle cell (myosin) and collagen (Picrosirius Red) changes.

[3] = test system: Fat-fed New Zealand rabbits; assay: MLu phototherapy at low light fluence in fat-fed New Zealand rabbits; format: in vivo, rabbit; conditions: PT at 732 nm, low light fluence 30-100 J/cmf
From the text: The methods, compositions, strategies and techniques described herein include processes to treat diffuse inflammation in blood vessels by administering a photo-activatable compound and low light fluence in the range of in the range of about 10 to about 400 Joules/cm of illuminated length in the general vicinity of the inflammation.

## CC(=O)[O-].CC(=O)[O-].CCc1c(CC)c2cc3nc(cnc4cc(OCCOCCOCCOC)c(OCCOCCOCCOC)cc4ncc4nc(cc1[n-]2)C(CCCO)=C4C)C(C)=C3CCCO.O.[Lu+3] [MLu, motexafin lutetium]
[1]
  effect on macrophages (Mac) following phototherapy (PT): destroys Mac by inducing apoptosis
[2]; 30-175 J/cmf delivered over 400 s and 900 s
  macrophages in plaques: macrophage depletion
[2]; all tested fluence groups (30-175 J/cmf) vs. control, p<0.05, both T1 and T2 treated segments
  macrophage burden: statistical significant reduction in macrophage burden
[2]; treated 30 J/cmf, 400 s vs. control
  collagen (picrosirius red, bright-field and polarization microscopy): denser packing of matured collagen
[2]; treated 30 J/cmf, 400 s vs. control (non-phototherapy)
  smooth muscle cell (SMC) content, histology of myosin-stained areas: did not appear to decrease
[2]; treated sections, 30 J/cmf, 400 s, control 43.1±3.8%
  SMC content (myosin positive areas), planimetry, % of the intima: 50.9±9.7%
[3]
  diffuse inflammation in blood vessels (based on decrease in macrophage burden): significant reduction in diffuse inflammation
